{"source": "a melting point compilation (Tetko et al.; mined from patent text by program, amines drawn as free bases though some values may be those of a salt)", "note": "Residues, ends and D or L forms follow the SMILES beside them. *: point of attachment. Cbz = O=C(OCc1ccccc1)*", "data": [{"units": {"melting point": "°C"}, "values": [{"smiles": "CSC1C(=O)Nc2ccc(Oc3ccccc3)cc21", "note": "(configuration not stated)", "melting point": "124 to 128"}, {"smiles": "CNCc1c(C)c([N+](=O)[O-])cc2[nH]c(=O)c(=O)[nH]c12", "melting point": "260 to 261"}, {"smiles": "O=c1ccc(-c2ccc(OCCCN3CCCCC3)nc2)n[nH]1", "melting point": "155 to 158"}, {"smiles": "CCOC(=O)CCc1cc(O)nn1CC", "melting point": "91 to 92"}, {"smiles": "COc1cc(C(C)=O)cc(OC)c1O[Si](C)(C)C(C)(C)C", "melting point": "90 to 92"}, {"smiles": "O=C(O)CNC(=O)C(CS)Cc1ccc2c(c1)OCO2", "note": "(racemic)", "melting point": 94}, {"smiles": "C[C@@H]1[C@H](O[Si](C)(C)C(C)(C)C)[C@@H](C)C(S(=O)(=O)c2ccccc2)=C[C@H]1O", "melting point": "107 to 108"}, {"smiles": "CC(C)N(C(=O)CO)c1ccccc1", "melting point": 39}, {"smiles": "CCC(=Nc1ccc2c(c1)C(=O)c1ccc(N=C(CC)N3CCCCC3)cc1C2=O)N1CCCCC1", "melting point": "183 to 185"}, {"smiles": "CON=C(C(C)=NN=Cc1ccccc1N(OC)C(=O)OC)c1ccc(F)cc1", "melting point": "88 to 90"}, {"smiles": "CCCCN(C)Cc1c(-c2ccccc2)sc(N)c1C(=O)c1ccc(Cl)cc1", "melting point": "84 to 88"}, {"smiles": "CCOC1=C(CCCCCCC(=O)O)C(=O)CC1", "melting point": "65 to 66"}, {"smiles": "COCCOc1ccc([N+](=O)[O-])cc1[N+](=O)[O-]", "melting point": "31 to 33"}, {"smiles": "COC(=O)C(c1ccc(Cl)cc1)c1c2ccccc2nc2ccccc12", "note": "(configuration not stated)", "melting point": "192 to 193"}, {"smiles": "CC1(C(=O)N2C[C@@H]3C[C@H]2C(=O)O3)CC1", "melting point": "101 to 102"}, {"smiles": "CN1Cc2c(C(N)=O)ncn2-c2cccc(Cl)c2C1=O", "melting point": "> 250"}, {"smiles": "O=C(c1ccccc1)n1c(=O)c(C(F)(F)F)cn(C2CC(O)C(COCc3ccc(Cl)cc3)O2)c1=O", "note": "(configuration not stated)", "melting point": "159 to 160"}, {"smiles": "CCCCC(OC(C)=O)c1cccc(COc2cc([N+](=O)[O-])cc3cccnc23)c1", "note": "(configuration not stated)", "melting point": "72 to 74"}, {"smiles": "CN(C)C(N)=C(C#N)C#N", "melting point": "228 to 229"}, {"smiles": "CC1(C)Cc2cccc(Oc3c(Cl)cc([N+](=O)[O-])cc3Cl)c2O1", "melting point": "105 to 110"}, {"smiles": "Nc1ccccc1-c1cc[nH]n1", "melting point": "122 to 123"}, {"smiles": "CCc1nn(C)c(CC)c1NC(N)=S", "melting point": "234 to 235"}, {"smiles": "CCn1cc(C(=O)O)c(=O)c2cc(F)c(N3CCCC3)nc21", "melting point": "299 to 300"}, {"smiles": "CCOC(=O)Cn1c(=O)n(-c2ccccc2Cl)c(=O)c2c(C)c(C(=O)OCC)c(C)cc21", "melting point": "158 to 159"}, {"smiles": "CNC(=O)C(NC(=O)c1ccc(F)cc1C(F)(F)F)C(O)CSc1cccc(F)c1", "note": "(configuration not stated)", "melting point": 172}, {"smiles": "CCCCCCCCCCCC(=O)NCCCCCC(=O)O", "melting point": "85 to 86"}, {"smiles": "CC1=C(C(=O)NC(C)(C)C)C(c2ccccc2Br)C(C(=O)OC(C)C)=C(COCCn2c(C)nc3cnccc32)N1", "note": "(configuration not stated)", "melting point": "160 to 165"}, {"smiles": "O=C(Cc1ccc2ccccc2c1OCC1CO1)NCCO[N+](=O)[O-]", "note": "(configuration not stated)", "melting point": "67 to 71"}, {"smiles": "N=C(N)NCCc1ccc(OCCC(c2ccc(Cl)cc2)(c2ccc(Cl)cc2)c2ccc(Cl)cc2)cc1", "melting point": "146 to 150"}, {"smiles": "COCC1CN(c2ccc(OCCCC3(C)OC(COS(=O)(=O)c4ccc(C)cc4)C(COS(=O)(=O)c4ccc(C)cc4)O3)cc2)C(=O)O1", "note": "(configuration not stated)", "melting point": 104}, {"smiles": "O=C1NC(=O)c2c1cc1ccc3c(c1c2-c1ccc2c(c1)OCO2)OCC3", "melting point": "> 320"}, {"smiles": "CC(C)CN1C(=O)CCC(c2ccccc2Cl)c2ccccc21", "note": "(configuration not stated)", "melting point": "139 to 140"}, {"smiles": "CN(C(=O)N1CCCC1)c1cccc2cc(-c3nccs3)[nH]c12", "melting point": 182}, {"smiles": "CC(=O)SCC(C(=O)Nc1oc(CCC(=O)O)c2ccccc12)C(F)(F)F", "note": "(configuration not stated)", "melting point": "139 to 140"}, {"smiles": "CN1CCN(C)C1=Nc1ccccc1N1CCOCC1", "melting point": "133 to 134"}, {"smiles": "CCOP(=O)(COc1ccc(-c2c3ccccc3cc3sc4ccccc4c23)cc1)OCC", "melting point": "129 to 130"}, {"smiles": "CC1c2ccccc2-c2ccccc2N1S(=O)(=O)c1ccc(O)cc1", "note": "(configuration not stated)", "melting point": "196 to 198"}, {"smiles": "CCCCC1SCC(C(=O)OC(C)(C)C)N1C(=O)CNC(=O)NCC(C(=O)O)c1ccccc1", "note": "(configuration not stated)", "melting point": 102}, {"smiles": "COc1ccc(-c2ccc(C(C)=NO)cc2)cc1", "melting point": "82 to 84"}, {"smiles": "CCNc1nc(C)nc(O)c1C(C)C", "melting point": 180}, {"smiles": "CCN(C(=O)c1ccc(Cl)c(Cl)c1)c1ccc(C)cc1CCC(=O)O", "melting point": "107 to 109"}, {"smiles": "CCC(O)(C(=O)c1ccccc1)c1ccccc1", "note": "(configuration not stated)", "melting point": "62 to 68"}, {"smiles": "CC(=O)c1nn[nH]c1-c1ccccc1", "melting point": "117 to 118"}, {"smiles": "Cc1nc2cccc(OCC(C)(C)NC(=O)c3ccncc3)c2c(N)c1C(=O)O", "melting point": "195 to 198"}, {"smiles": "COC(=O)c1cc(-n2cccc2)ccc1C", "melting point": "56 to 57"}, {"smiles": "Cc1ccc2c(c1)C(C(=O)Nc1ccccc1)c1ccccc1CO2", "note": "(configuration not stated)", "melting point": "129 to 130"}, {"smiles": "O=[N+]([O-])c1cnc(Sc2nnc(O)n2-c2ccccc2)s1", "melting point": "188 to 190"}, {"smiles": "NC1(C(=O)O)CC(OC(=O)Nc2ccccc2F)C2C(C(=O)O)C21", "note": "(configuration not stated)", "melting point": "232 to 233"}, {"smiles": "COc1ccc(-c2cc(C(=O)O)c(=O)n(CCCc3ccc(F)cc3)n2)cc1F", "melting point": "185 to 187"}, {"smiles": "N#CCCNC(=O)c1cccc(-c2cccc3cn(Cc4cccc(C(F)(F)F)c4)nc23)c1", "melting point": "174 to 175"}, {"smiles": "COC(Cc1ccc(I)cc1)c1ccc(I)cc1", "note": "(configuration not stated)", "melting point": "62 to 64"}, {"smiles": "CC(=O)N1N=C(C=Cc2ccc([N+](=O)[O-])cc2)c2cc3c(cc2CC1C)OCO3", "note": "(configuration not stated)", "melting point": "188 to 190"}, {"smiles": "COC(=O)C1=C(C)N(C)C(C)=C(C(=O)OC)C1c1ccccc1", "melting point": "151 to 153"}, {"smiles": "Cc1[nH]c(C(=O)Nc2ccc3ncsc3c2)c(C)c1-c1nc2ccc(C(=O)c3ccccc3)cc2[nH]1", "melting point": "155 to 157"}, {"smiles": "Cc1ccc(C(=O)NC(=O)Nc2cc3c(cc2F)/C(=C/c2[nH]c(C)c(CCC(=O)O)c2C)C(=O)N3)cc1", "melting point": "265 to 270"}, {"smiles": "COC(=O)COc1ccc(OC)cc1NC(=O)c1ccc(OCCCCc2ccccc2)cc1", "melting point": "91 to 93"}, {"smiles": "CC(=O)SCCc1ccc(C=O)cc1", "melting point": 35}, {"smiles": "Cc1ccc(O)c(C(OC2CCN(C)CC2)c2nc3ccccc3[nH]2)c1", "note": "(configuration not stated)", "melting point": 151}, {"smiles": "C[C@H](NC(=O)OCc1ccccc1)C(=O)N1CCC[C@H]1C(=O)O", "note": "(Cbz-Ala-Pro-OH)", "melting point": "124 to 125"}, {"smiles": "CN(C)CCCOc1ccc(-c2n[nH]c3ncccc23)cc1", "melting point": "176 to 177"}, {"smiles": "C=CCOC(=O)c1ccc(S(C)=O)c([N+](=O)[O-])c1", "note": "(configuration not stated)", "melting point": "119 to 121"}, {"smiles": "COc1ccc(C=Cc2c(Cl)cncc2Cl)c2c1OC1(CCCC1)O2", "melting point": "100 to 101"}, {"smiles": "CS(=O)(=O)c1ccc(Oc2ccc([N+](=O)[O-])c(OCc3ccccc3)c2)cc1", "melting point": "142 to 143"}, {"smiles": "Cc1[nH]nc(NC2CCCCC2)c1C(=O)O", "melting point": "162 to 163"}, {"smiles": "c1cc2c(cc1C1CCC3(CC1)OCCO3)OCO2", "melting point": "115 to 116"}, {"smiles": "Cc1ccc(-c2c(C(N)=O)n(C)c(=O)c3ncccc23)cc1", "melting point": "> 310"}, {"smiles": "CCOC(=O)c1csc(Cc2ccc(NC(=O)/C=C/c3cnn(C)c3-c3ccc(F)cc3)cc2)n1", "melting point": "189 to 190"}, {"smiles": "CC(C)c1ccc(C(=O)NCCOc2ccc(C(=O)O)cc2)cc1", "melting point": "202 to 203"}, {"smiles": "C=C(c1ccccc1)c1ccc(N2CCCC2)cc1", "melting point": "82.5 to 83"}, {"smiles": "O=C(Nc1nccs1)c1c(CO)nc2c(C(F)(F)F)cccc2c1O", "melting point": 280}, {"smiles": "CC(C)=CCCOc1c(-c2ccc(S(N)(=O)=O)cc2)cnn(-c2ccc(F)c(F)c2)c1=O", "melting point": "70 to 73"}, {"smiles": "COc1cc(Nc2ncc(C#N)c(-c3ccc(C(C)(C)N)cc3)n2)cc(OC)c1OC", "melting point": "167 to 168"}]}]}
